Results reported in patent EP4681700A1, “GSE24.2-DERIVED PEPTIDE AND USES THEREOF” (Consejo Superior De Investigaciones Científicas - CSIC, priority 2023, dated 2026).

What was measured:
[1] = system: RLE6TN cells; experiment: TERT and TERC mRNA expression by quantitative PCR in transduced cells; type: cell-based, rat; details: corrected by GAPDH, normalised to CT; for expression of Tert mRNA: Figure 3A; for expression of Terc: p<0.05, Figure 3B
Text: (§1) RNA was isolated from control cells or cells transduced with vectors expressing GFP or the GSE4 and P3 peptides. The corresponding cDNAs, which were used to determine the expression levels of the mRNA encoding TERT (Figure 3, panels A and C) and TERC (Figure 3, panels B and D) by means of quantitative PCR, were synthesised from these RNAs. Expression levels were corrected by levels corresponding to the mRNA encoding GAPDH, used as a control. Relative values were normalised with respect to values obtained for non-transduced control cells (CT). Panels A and B show the results obtained for RL6TN cells and panels C and D show the results corresponding to HaCaT cells.
For assays performed in RLE6TN cells, shown in Figures 3A and 3B, oligonucleotides corresponding to SEQ ID Nos: 23, 24 for TERT, SEQ ID Nos:27, 28 for TERC, and SEQ ID Nos:43, 44 for GAPDH were used in quantitative PCR assays.

[2] = system: RLE6TN cells; experiment: IL-6 mRNA expression by quantitative PCR in transduced cells; type: cell-based, rat; details: Figure 5A
Method: (§2) Another important component of tissue ageing is the production of pro-inflammatory interleukins that induce the presence of basal inflammation in tissues. This inflammatory situation also occurs in some diseases of premature ageing and in response to environmental aggressions. Interleukin-6 (IL-6) is one of the main pro-inflammatory molecules and, for this reason, the possible effect of the expression of the peptides on the synthesis of this molecule was determined. In these experiments, the expression of the mRNA encoding IL-6 in cells transduced with the expression vectors of the P3 peptide and controls was determined.
(§3) RNA was obtained from RL6TN cells (Figure 5, panel A) or HaCaT cells (Figure 5, panel B) not transduced (CT) or transduced with lentiviral vectors expressing GFP or the GSE4 or P3 peptides. cDNA was synthesised from each RNA by reverse transcription and the amount of mRNA encoding IL-6 was quantified by quantitative PCR as described in Examples 2 and 3 above.
(§4) The obtained results are shown in Figures 5A (RLE6TN cells) and 5B (HaCaT cells). In the assays with RLE6TN cells, oligonucleotides with SEQ ID Nos: 39 and 40 for IL-6 and SEQ ID Nos: 43 and 44 for GAPDH were used for quantitative PCRs. In the assay performed with HaCaT cells, oligonucleotides with SEQ ID Nos: 37 and 38 for IL-6 and SEQ ID Nos: 41 and 42 for GAPDH were used.

[3] = system: RLE6TN cells; experiment: TGFβ-induced expression of TGFβ receptor and MCP1 mRNA (epithelial/mesenchymal transition), quantitative PCR; type: cell-based, rat; details: 5 ng/mL TGFβ, 48 of culture; for induction of expression of Mcp1 mRNA after incubating the cells with TGFβ: p<0.01 for P3 and GSE4, Figure 4A; for induction of expression of Tgfbr1 mRNA after incubating the cells with TGFβ: p<0.05 for P3, Figure 4A
Text: (§5) The ageing of some tissues is accompanied by fibrotic processes in which fibroblasts and myofibroblasts accumulate and in which epithelial/mesenchymal transition of epithelial cells is induced. This process occurs, for example, in idiopathic pulmonary fibrosis and in fibrosis processes as a result of skin exposure to ionising radiation. Many of these processes are mediated by the secretion of the cytokine TGFβ (transforming growth factorβ). The possible effect of the peptides on these processes was studied by incubating cells with TGFβ (R&D Systems, Bio-Techne, Minneapolis; MN, USA) and studying the expression of two mRNAs induced by this cytokine, i.e., the TGFβ receptor (TGFβR1/2) and the cytokine MCP1 (also referred to as CCL2) by means of reverse transcription of RNA and quantitative PCR.
(§6) Control cells or cells transduced with GFP expression vectors, or the GSE4 and P3 peptides were cultured in the absence or presence of a concentration of 5 ng/mL of the TGFβ factor (identified with the symbol + in Figure 4) to induce epithelial/mesenchymal transition. After 48 of culture, RNA was obtained from the cells and converted into cDNA by means of reverse transcription. The expression levels of the mRNA encoding TGFBR-1/2 (TGFβ-receptor 1 or 2) and MCP1 (monocyte chemoattractant protein-1, also referred to as CCL2: C-C motif chemokine ligand 2) were determined by quantitative PCR. The values obtained were corrected by those corresponding to the control mRNA (GAPDH) and normalised by the expression in control cells (CT).
(§7) In the assays shown in Figures 4A, for RLE6TN cells, oligonucleotides SEQ ID Nos 31 and 32 for TGFBR1, 35 and 36 for MCP1, and 43 and 44 for GAPDH were used in quantitative PCR. To obtain the results shown in Figure 4B, for HaCaT cells, oligonucleotides SEQ ID Nos: 29 and 30 for TGFBR2, SEQ ID Nos: 33 and 34 for MCP1, and SEQ ID Nos: 41y 42 for GAPDH b were used.

[4] = system: rat lung epithelial cells RL6TN; experiment: yH2AX Western blot (DNA damage) in cells transduced with lentiviral peptide expression vectors; type: cell-based; details: 6 hours, relative to β-actin, normalised to CT
Method: In the experiment shown in Figure 1, rat lung epithelial cells RL6TN were transduced with lentiviral vectors directing the expression of the peptides under study and the corresponding controls. The presence of γH2AX was then determined by means of Western blot assays.
(§8) RL6TN cells were transduced with lentiviral vectors directing the expression of the different peptides under study (sequences derived from pCCL-hPGK.GSE4.wPREchim, SEQ ID NO. 62, in which the oligonucleotides corresponding to each peptide, shown in Table 4, SEQ ID Nos: 46-60, have been included between restriction sites Sall and Xbal) or of the GFP protein (green fluorescent protein) (PGK-EGFP sequence, SEQ ID NO. 63) as negative control. 600,000 non-transduced (control, CT) cells or cells transduced with the different lentiviral vectors were cultured for 6 hours in the absence (Panel A) or presence of 4 µg/mL of bleomycin (Merck, Burlington, MA. USA) (Panel B). After this culture period, the cells were lysed and the amount of yH2AX was determined by means of Western blot using an yH2AX-specific antibody (Cell Signalling Technology, Danvers, MA, USA). Expression of the β-actin protein as loading control was simultaneously determined using a specific antibody (Santa Cruz Biotechnology, Dallas, TX, USA). Protein expression was quantified using a luminometer. The expression of yH2AX in each sample was calculated based on the amount of β-actin. These relative values were normalised to the value corresponding to control cells not treated with bleomycin.

[5] = system: HaCaT cells; experiment: TGFβ-induced expression of TGFβ receptor and MCP1 mRNA (epithelial/mesenchymal transition), quantitative PCR; type: cell-based, human; details: 5 ng/mL TGFβ, 48 of culture; for induction of expression of TGFBR2 mRNA after incubating the cells with TGFβ: Figure 4B; for induction of expression of MCP1 mRNA after incubating the cells with TGFβ: p<0.05 for P3, Figure 4B
Text: as §5, §6, §7

[6] = system: HaCaT cells; experiment: TERT and TERC mRNA expression by quantitative PCR in transduced cells; type: cell-based, human; details: corrected by GAPDH, normalised to CT; for expression of Terc: p<0.001 for P3 only, Figure 3D; for expression of TERT: p<0.01 for both peptides, Figure 3C
Text: as §1
The results obtained for HaCaT cells are depicted in Figures 3C and 3D where oligonucleotides corresponding to SEQ ID Nos: 21, 22 for TERT, SEQ ID Nos: 25, 26 for TERC, and SEQ ID Nos: 41, 42 for GAPDH were used. […] This difference is statistically significant for both peptides in the case of TERT (**, p<0.01, ANOVA test and Dunnett's post-hoc test) and for the P3 peptide in the case of TERC (***, p<0.001, ANOVA test and Dunnett's post-hoc test).

[7] = system: HaCaT cells; experiment: yH2AX Western blot (DNA damage signalling) in transduced keratinocytes; type: cell-based, human; details: 6 hours
Text: as §8
DNA damage signalling studies were reproduced in human skill keratinocyte cell line HaCaT. This cell line is often used to study skin's response to environmental and pathogenic agents. HaCaT cells were transduced with lentiviral vectors which allow the expression of the P3 peptide, the GSE4 peptide, as a positive control, or GFP as a negative control. 100,000 non-transduced (CT) cells or cells transduced with the various peptides were cultured in the absence (Figure 2A) or presence of 50 µg/mL of bleomycin (Figure 2B) for 6 hours. Subsequently, the cells were lysed and the amount of yH2AX present in the extracts was determined by Western Blot in the same way as indicated for the assays in RL6TN cells described above.

[8] = system: HaCaT cells; experiment: IL-6 mRNA expression by quantitative PCR in transduced cells; type: cell-based, human; details: Figure 5B
Method: as §2, §3, §4

[9] = 4 µg/mL of bleomycin, Figure 1B
[10] = culture control conditions (absence of bleomycin), Figure 1A
[11] = baseline damage (absence of bleomycin), Figure 2A

| Sequence | expression of Tert mRNA [1] | expression of Terc [1] | expression of IL-6 mRNA [2] | induction of expression of Mcp1 mRNA after incubating the cells with TGFβ [3] | induction of expression of Tgfbr1 mRNA after incubating the cells with TGFβ [3] | levels of yH2AX [4, 9] | levels of yH2AX [4, 10] | induction of expression of TGFBR2 mRNA after incubating the cells with TGFβ [5] | induction of expression of MCP1 mRNA after incubating the cells with TGFβ [5] | expression of Terc [6] | expression of TERT [6] | DNA damage signalling (amount of yH2AX) [7, 11] | expression of IL-6 mRNA [8] | DNA damage signalling (amount of yH2AX) ([7]; 50 µg/mL of bleomycin, Figure 2B) |
| --- | --- | --- | --- | --- | --- | --- | --- | --- | --- | --- | --- | --- | --- | --- |
| GFINLDKPSNP [GSE4, reference compound] | an increase was also observed | significant increase | decreased the expression of IL-6 mRNA | also causes this inhibitory effect of the response to TGFβ | also causes this inhibitory effect of the response to TGFβ | This decrease is greater than that caused by the expression of the GSE4 peptide | This decrease is greater than that caused by the expression of the GSE4 peptide | also causes this inhibitory effect of the response to TGFβ | also causes this inhibitory effect of the response to TGFβ | caused an increase | caused an increase | the reduction is greater than that caused by the expression of GSE4 | decreased the expression of IL-6 mRNA | – |
| DKPSNPSSHE [P3, GSE24.2-derived peptide of 10 amino acids, expressed in cells from a lentiviral vector] | an increase was also observed | significant increase | decreased the expression of IL-6 mRNA | decreases the induction of expression of both markers | decreases the induction of expression of both markers | causes a decrease in the levels of yH2AX | causes a decrease in the levels of yH2AX | decreases the induction of expression of both markers | decreases the induction of expression of both markers | caused an increase | caused an increase | reduces DNA damage signalling | decreased the expression of IL-6 mRNA | reduces DNA damage signalling |
